As a reminder, the EC50 is the concentration that produces a half-maximal response.

The target of the test is T1, recombinant human pancreatic GLK (Homo sapiens, UniProt P35557).
T1 sequence (P35557 1-465): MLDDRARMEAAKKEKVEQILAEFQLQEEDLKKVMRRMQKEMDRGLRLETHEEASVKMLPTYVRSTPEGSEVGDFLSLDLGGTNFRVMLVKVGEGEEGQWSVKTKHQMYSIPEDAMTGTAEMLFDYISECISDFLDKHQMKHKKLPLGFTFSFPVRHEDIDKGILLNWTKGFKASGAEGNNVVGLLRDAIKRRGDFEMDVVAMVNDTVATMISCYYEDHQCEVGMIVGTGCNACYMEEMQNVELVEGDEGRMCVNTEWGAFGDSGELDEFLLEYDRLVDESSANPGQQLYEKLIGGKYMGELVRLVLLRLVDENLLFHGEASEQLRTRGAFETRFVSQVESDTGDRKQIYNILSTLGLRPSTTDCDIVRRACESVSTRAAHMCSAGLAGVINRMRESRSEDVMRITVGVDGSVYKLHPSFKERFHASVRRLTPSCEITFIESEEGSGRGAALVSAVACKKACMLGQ
Nature of the test: biochemical.
As for `COCC(Sc1ncnc2c1cnn2-c1ccccc1Cl)C(=O)Nc1ccc(C)cn1` (stereo not shown) [Example 62, 2-{[1-(2-Chlorophenyl)-1H-pyrazolo[3,4-d]pyrimidin-4-yl]thio}-3-methoxy-N-(5-methylpyridin-2-yl)propanamide], the EC50 worked out at 12 µM.

Turning to `CCCCCCC(Sc1ncnc2c1cnn2-c1ccccc1Cl)C(=O)Nc1nc(C)cs1` (stereo not shown) [Example 63, 2-{[1-(2-chlorophenyl)-1H-pyrazolo[3,4-d]pyrimidin-4-yl]thio}-N-(4-methyl-1,3-thiazol-2-yl)octanamide], the EC50 was greater than 4.5 µM.

For `CCCCCCC(Sc1ncnc2c1cnn2-c1ccccc1Cl)C(=O)Nc1ccon1` (stereo not shown) [Example 64, 2-{[1-(2-chlorophenyl)-1H-pyrazolo[3,4-d]pyrimidin-4-yl]thio}-N-isoxazol-3-yloctanamide], the EC50 amounted to 10 µM.

`CCOC(Sc1ncnc2c1cnn2-c1ccccc1OC)C(=O)Nc1nc(C)cs1` (stereo not shown) [Example 71, 2-Ethoxy-2-{[1-(2-methoxyphenyl)-1H-pyrazolo[3,4-d]pyrimidin-4-yl]thio}-N-(4-methyl-1,3-thiazol-2-yl)acetamide]: the EC50 stood at 1.6 µM.

`CCOC(Sc1ncnc2c1cnn2-c1ccccc1OC)C(=O)Nc1ccon1` (stereo not shown) [Example 72, 2-Ethoxy-N-isoxazol-3-yl-2-{[1-(2-methoxyphenyl)-1H-pyrazolo[3,4-d]pyrimidin-4-yl]thio}acetamide]: the EC50 amounted to 2.9 µM.

On to `COCCC(Oc1ncnc2c1cnn2C(C)C)C(=O)Nc1ccc(C)cn1` (stereo not shown) [Example 76, 2-[(1-isopropyl-1H-pyrazolo[3,4-d]pyrimidin-4-yl)oxy]-4-methoxy-N-(5-methylpyridin-2-yl)butanamide], for which the EC50 was no less than 100 µM.

As to `Cc1ccc(NC(=O)C(Oc2ncnc3c2cnn3-c2ccccc2Cl)C(C)C)nc1` (stereo not shown) [Example 83, 2-(1-(2-chlorophenyl)-1H-pyrazolo[3,4-d]pyrimidin-4-yloxy)-3-methyl-N-(5-methylpyridin-2-yl)butanamide], the concentration giving a half-maximal response (EC50) worked out at 0.87 µM.

On to `Cc1ccc(NC(=O)[C@@H](Oc2ncnc3c2cnn3-c2ccccc2Cl)C(C)C)nc1` [Example 84, (2S)-2-(1-(2-chlorophenyl)-1H-pyrazolo[3,4-d]pyrimidin-4-yloxy)-3-methyl-N-(5-methylpyridin-2-yl)butanamide], for which the 50% effective concentration (EC50) amounted to 0.47 µM.

Turning to `Cc1ccc(NC(=O)[C@H](Oc2ncnc3c2cnn3-c2ccccc2Cl)C(C)C)nc1` [Example 85, (2R)-2-(1-(2-chlorophenyl)-1H-pyrazolo[3,4-d]pyrimidin-4-yloxy)-3-methyl-N-(5-methylpyridin-2-yl)butanamide], the half-maximal effective concentration (EC50) came out at 9.5 µM.

Consider `Cc1ccc(NC(=O)[C@@H](Oc2ncnc3c2cnn3-c2ncccc2Cl)C(C)C)nc1` [Example 86, (2S)-2-(1-(3-chloropyridin-2-yl)-1H-pyrazolo[3,4-d]pyrimidin-4-yloxy)-3-methyl-N-(5-methylpyridin-2-yl)butanamide], for which the EC50 turned out to be 1.5 µM.

For `COC[C@H](Oc1ncnc2c1cnn2-c1ccccc1Cl)C(=O)Nc1ccc(C)cn1` [Example 87, (2S)-2-(1-(2-chlorophenyl)-1H-pyrazolo[3,4-d]pyrimidin-4-yloxy)-3-methoxy-N-(5-methylpyridin-2-yl)propanamide], the EC50 came to 0.32 µM.

Consider `COC[C@@H](Oc1ncnc2c1cnn2-c1ccccc1Cl)C(=O)Nc1ccc(C)cn1` [Example 88, (2R)-2-(1-(2-chlorophenyl)-1H-pyrazolo[3,4-d]pyrimidin-4-yloxy)-3-methoxy-N-(5-methylpyridin-2-yl)propanamide], for which the EC50 stood at 5.1 µM.

As to `COC[C@H](Oc1ncnc2c1cnn2-c1ncccc1Cl)C(=O)Nc1ccc(C)cn1` [Example 89, (2S)-2-(1-(3-chloropyridin-2-yl)-1H-pyrazolo[3,4-d]pyrimidin-4-yloxy)-3-methoxy-N-(5-methylpyridin-2-yl)propanamide], the EC50 worked out at 1.5 µM.

Regarding `COC[C@H](Oc1ncnc2c1cnn2-c1ncccc1Cl)C(=O)Nc1cnc(C)cn1` [Example 90, (2S)-2-(1-(3-chloropyridin-2-yl)-1H-pyrazolo[3,4-d]pyrimidin-4-yloxy)-3-methoxy-N-(5-methylpyrazin-2-yl)propanamide], the EC50 worked out at 5.4 µM.

As to `Cc1ccc(NC(=O)[C@H](COC(C)C)Oc2ncnc3c2cnn3-c2ncccc2Cl)nc1` [Example 91, (2S)-2-(1-(3-chloropyridin-2-yl)-1H-pyrazolo[3,4-d]pyrimidin-4-yloxy)-3-isopropoxy-N-(5-methylpyridin-2-yl)propanamide], the EC50 worked out at 0.16 µM.

As for `Cc1cnc(NC(=O)[C@H](COC(C)C)Oc2ncnc3c2cnn3-c2ncccc2Cl)cn1` [Example 92, (2S)-2-(1-(3-chloropyridin-2-yl)-1H-pyrazolo[3,4-d]pyrimidin-4-yloxy)-3-isopropoxy-N-(5-methylpyrazin-2-yl)propanamide], the half-maximal effective concentration (EC50) turned out to be 0.42 µM.

Regarding `Cc1nsc(NC(=O)[C@H](COC(C)C)Oc2ncnc3c2cnn3-c2ncccc2Cl)n1` [Example 93, (2S)-2-(1-(3-chloropyridin-2-yl)-1H-pyrazolo[3,4-d]pyrimidin-4-yloxy)-3-isopropoxy-N-(3-methyl-1,2,4-thiadiazol-5-yl)propanamide], the 50% effective concentration (EC50) turned out to be 3.3 µM.

With `Cc1cnc(NC(=O)[C@@H](Oc2ncnc3c2cnn3-c2ncccc2Cl)C(C)C)cn1` [Example 94, (2S)-2-(1-(3-chloropyridin-2-yl)-1H-pyrazolo[3,4-d]pyrimidin-4-yloxy)-3-methyl-N-(5-methylpyrazin-2-yl)butanamide], the half-maximal effective concentration (EC50) is 9.2 µM.

As for `COC[C@H](Oc1ncnc2c1cnn2-c1ccc(F)cc1Cl)C(=O)Nc1cnc(C)cn1` [Example 95, (2S)-2-(1-(2-chloro-4-fluorophenyl)-1H-pyrazolo[3,4-d]pyrimidin-4-yloxy)-3-methoxy-N-(5-methylpyrazin-2-yl)propanamide], the half-maximal effective concentration (EC50) was 39 µM.

Take `COC[C@H](Oc1ncnc2c1cnn2-c1ccc(F)cc1Cl)C(=O)Nc1ccc(C)cn1` [Example 96, (2S)-2-(1-(2-chloro-4-fluorophenyl)-1H-pyrazolo[3,4-d]pyrimidin-4-yloxy)-3-methoxy-N-(5-methylpyridin-2-yl)propanamide]: the concentration for a half-maximal effect (EC50) came to 1.3 µM.

With `COC[C@H](Oc1ncnc2c1cnn2-c1ccccc1C#N)C(=O)Nc1ccc(C)cn1` [Example 97, (2S)-2-(1-(2-cyanophenyl)-1H-pyrazolo[3,4-d]pyrimidin-4-yloxy)-3-methoxy-N-(5-methylpyridin-2-yl)propanamide], the EC50 is 1.2 µM.

As to `Cc1ccc(NC(=O)[C@H](COC(C)C)Oc2ncnc3c2cnn3-c2ccccc2C#N)nc1` [Example 97a, (2S)-2-[1-(2-cyanophenyl)pyrazolo[4,5-e]pyrimidin-4-yl]oxy-N-(5-methylpyridin-2-yl)-3-propan-2-yloxypropanamide], the EC50 was found to be 0.46 µM.

Take `Cc1ccc(NC(=O)[C@H](COC(C)C)Oc2ncnc3c2cnn3-c2ccccc2Cl)nc1` [Example 98, (2S)-2-(1-(2-chlorophenyl)-1H-pyrazolo[3,4-d]pyrimidin-4-yloxy)-3-isopropoxy-N-(5-methylpyridin-2-yl)propanamide]: the half-maximal effective concentration (EC50) was 0.11 µM.

Regarding `Cc1ccc(NC(=O)[C@@H](COC(C)C)Oc2ncnc3c2cnn3-c2ccccc2Cl)nc1` [Example 99, (2R)-2-(1-(2-chlorophenyl)-1H-pyrazolo[3,4-d]pyrimidin-4-yloxy)-3-isopropoxy-N-(5-methylpyridin-2-yl)propanamide], the EC50 amounted to 9.3 µM.

Take `Cc1nsc(NC(=O)[C@H](COC(C)C)Oc2ncnc3c2cnn3-c2ccccc2Cl)n1` [Example 100, (2S)-2-[1-(2-Chlorophenyl)pyrazolo[4,5-e]pyrimidin-4-yl]oxy-N-(3-methyl-1,2,4-thiadiazol-5-yl)-3-propan-2-yloxypropanamide]: the EC50 came out at 1 µM.

On to `COC[C@H](Oc1ncnc2c1cnn2-c1ccccc1Cl)C(=O)Nc1nc(C)ns1` [Example 101, (2S)-2-(1-(2-Chlorophenyl)-1H-pyrazolo[3,4-d]pyrimidin-4-yloxy)-3-methoxy-N-(3-methyl-1,2,4-thiadiazol-5-yl)propanamide], for which the EC50 turned out to be 5 µM.

For the compound `COCC[C@H](Oc1ncnc2c1cnn2-c1ncccc1Cl)C(=O)Nc1ccc(C)cn1` [Example 102, (2S)-2-(1-(3-Chloropyridin-2-yl)-1H-pyrazolo[3,4-d]pyrimidin-4-yloxy)-4-methoxy-N-(5-methylpyridin-2-yl)butanamide], the EC50 is 0.13 µM.

Take `CCOC[C@H](Oc1ncnc2c1cnn2-c1ncccc1Cl)C(=O)Nc1ccc(C)cn1` [Example 103, (2S)-2-[1-(3-Chloropyridin-2-yl)pyrazolo[4,5-e]pyrimidin-4-yl]oxy-3-ethoxy-N-(5-methylpyridin-2-yl)propanamide]: the EC50 stood at 0.28 µM.

For the compound `CCOC[C@H](Oc1ncnc2c1cnn2-c1ncccc1Cl)C(=O)Nc1cnc(C)cn1` [Example 104, (2S)-2-[1-(3-Chloropyridin-2-yl)pyrazolo[4,5-e]pyrimidin-4-yl]oxy-3-ethoxy-N-(5-methylpyrazin-2-yl)propanamide], the concentration for a half-maximal effect (EC50) is 1.2 µM.

Take `CCOC[C@H](Oc1ncnc2c1cnn2-c1ccccc1Cl)C(=O)Nc1cnc(C)cn1` [Example 105, (2S)-2-[1-(2-chlorophenyl)pyrazolo[4,5-e]pyrimidin-4-yl]oxy-3-ethoxy-N-(5-methylpyrazin-2-yl)propanamide]: the 50% effective concentration (EC50) stood at 0.51 µM.

Consider `Cc1cnc(NC(=O)[C@H](COC(C)C)Oc2ncnc3c2cnn3-c2nccnc2C)cn1` [Example 106, (2S)-3-Isopropoxy-N-(5-methylpyrazin-2-yl)-2-(1-(3-methylpyrazin-2-yl)-1H-pyrazolo[3,4-d]pyrimidin-4-yloxy)propanamide], for which the EC50 was 6.9 µM.

(Values after US8143263B2, “Therapeutic agents” (Astrazeneca AB, priority 2008, dated 2012).)
